In patent US8592403B2, “Diazepine and diazocane compounds as MC4 agonists” (Pfizer Limited, priority 2008, dated 2013):

What was measured:
[1] = In vitro metabolism rate determination, human liver microsome (HLM) assay; format: in vitro ADME; conditions: human, liver microsomes, read-out: HLM: Clint, app
Summary of the method: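 Human liver microsomes at 0.5 nmol cytochrome P450/ml with 1 μM substrate, pre-warmed 5 min at 37° C, reaction started with NADP; samples taken 0–60 min and terminated. Substrate loss measured; first-order rate constant from log-linear regression converted to half-life or Clint (μl/min/mg protein).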

MC3 receptor (MC3R) = molecular target: T1, MC3 receptor (MC3R) (Homo sapiens, UniProt P41968); test: Nle4, D-Phe7-α-MSH inhibition at the MC3 receptor (competition binding, SPA, CHO-CRE MC3R membranes)
T1 construct: expressed in transfected cells; host or cells: CHO-CRE MC3R cells (membranes)
T1 sequence (P41968 whole entry): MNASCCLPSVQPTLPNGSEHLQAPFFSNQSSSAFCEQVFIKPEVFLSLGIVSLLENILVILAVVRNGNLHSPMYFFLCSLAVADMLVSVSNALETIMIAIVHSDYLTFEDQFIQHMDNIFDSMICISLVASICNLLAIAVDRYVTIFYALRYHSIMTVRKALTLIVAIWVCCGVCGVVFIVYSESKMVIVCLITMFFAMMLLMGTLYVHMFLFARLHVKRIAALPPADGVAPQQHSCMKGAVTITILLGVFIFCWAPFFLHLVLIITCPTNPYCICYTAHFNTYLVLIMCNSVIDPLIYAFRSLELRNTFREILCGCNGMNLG
Summary of the method: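 Competition binding by SPA used CHO-CRE MC3R membranes on WGA beads with 0.06 nM [125I]Nle4,D-Phe7-α-MSH and 11 half-log competitor concentrations. Buffer was 25 mM HEPES, MgCl2, CaCl2, 1% Pluronic F68, pH7, incubated 12 h at room temperature. Non-specific binding was defined with 100 nM SHU9119, and Ki values were derived.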

MC4 receptor (MC4R) = molecular target: T2, MC4 receptor (MC4R) (Homo sapiens, UniProt P32245); test: Nle4, D-Phe7-α-MSH inhibition at the MC4 receptor (competition binding, SPA, CHO-CRE MC4R membranes)
T2 construct: expressed in transfected cells; host or cells: CHO-CRE MC4R cells (membranes)
T2 sequence (P32245 whole entry): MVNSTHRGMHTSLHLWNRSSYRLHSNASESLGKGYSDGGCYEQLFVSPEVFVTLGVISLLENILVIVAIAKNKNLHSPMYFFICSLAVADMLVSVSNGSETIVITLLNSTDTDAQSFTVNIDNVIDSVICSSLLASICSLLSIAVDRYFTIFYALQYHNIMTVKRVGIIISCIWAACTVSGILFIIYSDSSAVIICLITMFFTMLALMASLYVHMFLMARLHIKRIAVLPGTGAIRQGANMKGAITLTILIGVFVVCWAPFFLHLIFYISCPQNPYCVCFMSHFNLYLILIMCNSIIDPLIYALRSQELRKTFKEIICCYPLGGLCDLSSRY
Summary of the method: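 Competition binding by SPA used CHO-CRE MC4R membranes on WGA beads (0.15 ug membrane/well) with 0.06 nM [125I] Nle4, D-Phe7-α-MSH and 11 half-log competitor concentrations in duplicate. Buffer was 25 mM HEPES pH 7 with MgCl2, CaCl2, Pluronic F68 and protease inhibitors; incubation was 12 hours at room temperature. Non-specific binding was set with 100 nM SHU9119, and Ki was calculated.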

MC4 receptor = MC4 receptor (Homo sapiens, UniProt P32245); test: MC4 EC50 functional potency (protocol E of US2005/0176772 / WO 2005/077935); format: cell-based
MC4 receptor, sequence (P32245 whole entry): as above
Method: The compounds of formula (I) of the present invention have utility as MCR4 agonists in the treatment of various disease states.
MC5 and MC4 EC50 activity was determined as described by assay protocols D and E, respectively, in US2005/0176772 (pages 28-30).

Compound	microsomal CLint at 1 μM [1] [µL/min/mg]	Ki (MC3 receptor (MC3R)) [nM]	Ki (MC4 receptor (MC4R)) [nM]	EC50 (MC4 receptor) [nM]
CNC(=O)N1CCN(C(=O)[C@@H]2CN(c3cccnn3)C[C@H]2c2ccc(F)cc2F)CCCC1c1ccccc1 (mixture of isomers) [Example 73]	53	981	225	12.2
CS(=O)(=O)N1CCN(C(=O)[C@@H]2CN(c3ccc(C#N)nn3)C[C@H]2c2ccc(F)cc2F)CCCC1c1ccc(Cl)cc1 (mixture of isomers) [Example 76]	11	960	344	50
CS(=O)(=O)N1CCN(C(=O)[C@@H]2CN(c3ccc(=O)[nH]n3)C[C@H]2c2ccc(F)cc2F)CCCC1c1ccc(Cl)cc1 (mixture of isomers) [Example 79]	22	1110	107	17.1
CC(=O)N1CCN(C(=O)[C@@H]2CN(c3ccc4nncn4n3)C[C@H]2c2ccc(Cl)cn2)CCC[C@H]1c1ccc(Cl)cc1 [Example 6, 6-[(3S,4S)-3-{[4-acetyl-5S-(4-chlorophenyl)-1,4-diazocan-1-yl]carbonyl}-4-(5-chloropyridin-2-yl)pyrrolidin-1-yl][1,2,4]triazolo[4,3-b]pyridazine]	13.5	89.5	28.4	1.12
CCC(=O)N1CCN(C(=O)[C@@H]2CN(C(C)(C)C)C[C@H]2c2ccc(F)cc2F)CCC[C@H]1c1ccc(Cl)cc1 [Example 10]	22.1	6590	300	17.3
CC(C)C(=O)N1CCN(C(=O)[C@@H]2CN(C(C)(C)C)C[C@H]2c2ccc(F)cc2F)CCC[C@H]1c1ccc(Cl)cc1 [Example 11]	23.6	4090	200	6.73
CC(C)(C)N1C[C@@H](C(=O)N2CCC[C@@H](c3ccc(Cl)cc3)N(C(=O)C3CCC3)CC2)[C@H](c2ccc(F)cc2F)C1 [Example 14]	82.8	4060	378	13.4
CC(C)(C)C(=O)N1CCN(C(=O)[C@@H]2CN(C(C)(C)C)C[C@H]2c2ccc(F)cc2F)CCC[C@H]1c1ccc(Cl)cc1 [Example 15]	57.4	3380	144	10.6
CC(C)C(=O)N1CCN(C(=O)[C@@H]2CN(C(C)(C)C)C[C@H]2c2ccc(Cl)cn2)CCC[C@H]1c1ccc(Cl)cc1 [Example 20, 1-{[(3S,4S)-1-tert-butyl-4-(5-chloropyridin-2-yl)pyrrolidin-3-yl]carbonyl}-5S-(4-chlorophenyl)-4-isobutyryl-1,4-diazocane]	18.1	386	68.6	5.46
COC(=O)N1CCN(C(=O)[C@@H]2CN(c3ccc(=O)n(C)n3)C[C@H]2c2ccc(F)cc2F)CCC[C@@H]1c1ccc(Cl)cc1 [Example 56]	20.5	187	71.1	2.99
COC(=O)N1CCN(C(=O)[C@@H]2CN(c3ccc(=O)n(C)n3)C[C@H]2c2ccc(F)cc2F)CCC[C@H]1c1ccc(Cl)cc1 [Example 66, methyl (8S-4-chlorophenyl)-4-{[(3S,4R)-4-(2,4-difluorophenyl)-1-(1-methyl-6-oxo-1,6-dihydropyridazin-3-yl)pyrrolidin-3-yl]carbonyl}-1,4-diazocane-1-carboxylate]	20.5	187	71.1	2.99
COc1ccc([C@@H]2CN(c3ccc(C#N)nn3)C[C@H]2C(=O)N2CCC[C@@H](c3ccc(Cl)cc3)N(C(C)=O)CC2)c(F)c1 [Example 67]	21.4	162	58.9	7.73
COc1ccc([C@@H]2CN(c3ccc(=O)[nH]n3)C[C@H]2C(=O)N2CCC[C@@H](c3ccc(Cl)cc3)N(C(C)=O)CC2)c(F)c1 [Example 68, 6-[(3S,4R)-3-{[4-acetyl-5S-(4-chlorophenyl)-1,4-diazocan-1-yl]carbonyl}-4-(2-fluoro-4-methoxyphenyl)pyrrolidin-1-yl]pyridazin-3(2H)-one]	13.7	308	21.7	4.3
COc1ccc([C@@H]2CN(C(C)(C)C)C[C@H]2C(=O)N2CCC[C@@H](c3ccc(Cl)cc3)N(C(C)=O)CC2)c(F)c1 [Example 70]	28.3	5880	686	20.6
CC(=O)N1CCN(C(=O)[C@@H]2CN(c3ccc(C#N)nn3)C[C@H]2c2ccc(Cl)cn2)CCC[C@H]1c1ccc(Cl)cc1 [Example 72]	13	141	71.4	26.1
CS(=O)(=O)N1CCN(C(=O)C2CN(c3ccc(=O)[nH]n3)CC2c2ccc(F)cc2F)CCCC1c1ccc(F)cc1 (centres unmarked) [Example 78]	54	3220	303	40.3

The next lines start with the values.

microsomal CLint at 1 μM [1] [µL/min/mg]	Ki (MC3 receptor (MC3R)) [nM]	Ki (MC4 receptor (MC4R)) [nM]	EC50 (MC4 receptor) [nM]	Compound
143	715	77.9	7.12	CCCC(=O)N1CCN(C(=O)[C@@H]2CN(c3cccnn3)C[C@H]2c2ccc(F)cc2F)CCCC1c1ccccc1 (mixture of isomers) [Example 101]
102	1540	316	9.79	CC(=O)N1CCN(C(=O)[C@@H]2CN(c3cccnn3)C[C@H]2c2ccc(F)cc2F)CCCC1c1ccccc1 (mixture of isomers) [Example 103]
35.1	1150	33.6	34.9	COc1ccc([C@@H]2CN(c3ccc(=O)n(C)n3)C[C@H]2C(=O)N2CCCC(c3ccc(Cl)cc3)N(S(C)(=O)=O)CC2)c(F)c1 (single isomer, unassigned) [Example 117]
11.7	230	12	1.83	COC(=O)N1CCN(C(=O)[C@@H]2CN(c3ccc(=O)[nH]n3)C[C@H]2c2ccc(OC)cc2F)CCC[C@@H]1c1ccc(Cl)cc1 [Example 90, methyl 8R-(4-chlorophenyl)-4-{[(3S,4R)-4-(2-fluoro-4-methoxyphenyl)-1-(6-oxo-1,6-dihydropyridazin-3-yl)pyrrolidin-3-yl]carbonyl}-1,4-diazocane-1-carboxylate]
46.9	4300	383	20.2	COC(=O)N1CCN(C(=O)[C@@H]2CN(C(C)(C)C)C[C@H]2c2ccc(OC)cc2F)CCCC1c1ccc(Cl)cc1 (some centres unmarked) [Example 91]
23.2	178	24.7	1.83	COC(=O)N1CCN(C(=O)[C@@H]2CN(c3ccc(=O)n(C)n3)C[C@H]2c2ccc(OC)cc2F)CCC[C@H]1c1ccc(Cl)cc1 [Example 118]
18.8	900	22.3	8.53	COC(=O)N1CCN(C(=O)[C@@H]2CN(c3ccc(=O)n(C)n3)C[C@H]2c2ccc(OC)cc2F)CCC[C@@H]1c1ccc(Cl)cc1 [Example 119, methyl 8R-(4-chlorophenyl)-4-{[(3S,4R)-4-(2-fluoro-4-methoxyphenyl)-1-(1-methyl-6-oxo-1,6-dihydropyridazin-3-yl)pyrrolidin-3-yl]carbonyl}-1,4-diazocane-1-carboxylate]
